Structures are written as SMILES. “And” between values parts separate entries of the source, which are not always exact repeats. Equal entries are not always repeated.

Data set [1] in a line: Physical chemical characteristics: solubility. It is filed as physicochemical. An excerpt:
The physical chemical characteristics of the N-PEA product synthesized according to the present example were the following : […]

In another data set the test system is mast cells. As to the kind of experiment: Mast cell degranulation after crushing of the sciatic nerve (in vivo, histological count). Further details: species or system Male Spraugue Dawley Rats. Particulars: 20 mg/kg intraperitoneally for 15 days, on soy lecithin liposomes, sciatic nerve compression at 16th day, sacrifice three hours after, control average 61.4. The procedure: In order to verify the pharmacological activity of N-acyl derivatives of aminoalcohols, and in particular of N-PEA, under conditions of traumatic noxa due to crushing of the sciatic nerve, and therefore able to induce mast cells degranulation, the following "in vivo" biologic test was carried out.
Male Spraugue Dawley Rats weighing about 200 -250 g were divided into two groups and subjected for 15 days to two different treatments: the first group, being the control group, was intraperitoneally treated with a solution of liposomes of soy lecithin, whereas the second group was intraperitoneally treated with 20 mg/kg N-PEA vehiculated on soy lecithin liposomes.
At the 16th day the animals were subjected to a bland general anesthesia with ethyl ether, thereby proceeding to the operation of the nerve lesion as hereinbelow described. The left sciatic nerve was exposed just in the spot of its entrance to the haunch, by operating a dissection of the muscular bands. The thus exposed sciatic nerve was then repeatedly compressed as closest as possible to its origin, by using a crushing forceps. The wound was temporarily sewn up and the animals were left to recover.
Three hours after the sciatic nerve compression lesion the animals were sacrificed in order to take the sciatic nerve samples and to fix it for the histological analysis with a mixture of acetic acid and formalin. […]

With `CCCCCCCCCCCCCCCC(=O)NCCO` [N-PEA, N-(2-hydroxyethyl)hexadecanamide], the solubility in water entry in data set [1] is on record as “insoluble”. For the same compound, the “solubility in organic solvent” value in data set [1] (solvents in which soluble) is listed as “Hot MetOH, CHCl3, DMSO”. The “solubility in aqueous vehicles” value in data set [1] (stated as the reason for choosing the liposome vehicle) is given as “poor solubility”. For the same compound, the “Number of degranulated cells on a total of 100 examined cells, average” value in the data set on mast cells (average of 5 rats) is on record as 36.6. Further, the “Number of degranulated cells on a total of 100 examined cells” value in the data set on mast cells (individual rats, 20 mg/kg) is 35 and 44 and 37 and 25 and 42.

The values above are taken from EP0570714B1, “Use of aminoalcohol-N-acylderivatives for the manufacture of a medicament for the treatment of neurogenic endoneural oedema of the peripheral nerve” (LIFEGROUP S.p.A., priority 1992, dated 1993).
